Key:
Assay type in all cases: in vivo
[1] = system: barnyardgrass (Echinochloa crusgalli); assay: Postemergence herbicidal activity, barnyardgrass; settings: Echinochloa crus-galli, post-emergence, 336 h; Post, 2 lb/A
Method: (§1) Using the procedure described below, compounds of the invention are evaluated for control of several of the following plant species:
(§2) The following est procedure is employed. Seeds of selected crops and weeds are planted in soil in flats. For preemergence tests, the flats are treated with the test compound immediately after the planting. For postemergence tests, the seeds are allowed to germinate, and after two weeks the flats are treated with the test compound. The compound to be evaluated is dissolved in acetone, diluted with water, and sprayed over the flats using a carrier volume equivalent to 50 gallons per acre at the rate of application (pounds per acre, lb/A.) specified in the tables.

[2] = system: morningglory (Ipomoca spp.); assay: Preemergence herbicidal activity, morningglory; settings: Ipomoea, pre-emergence, 336 h, 2 lb/A
Method: as §1
as §2, with “tables. About two weeks after the application of the test compound, the state of growth of the plants is observed and the phytotoxic effect of the compound is evaluated. Tables III and IV give the average percent control achieved by test compounds in terms of the percent of the plants which are killed by the compounds.” for “tables.”

foxtail (Setaria spp.) [3] = assay: Postemergence herbicidal activity, foxtail; settings: Setaria, post-emergence, 336 h, Post, 2 lb/A
Method: as §1
as §2, with “tables. About two weeks after the application of the test compound, the state of growth of the plants is observed and the phytotoxic effect of the compound is evaluated. Tables III and IV give the average percent control achieved by test compounds in terms of the percent of the plants which are killed by the compounds.” for “tables.”

[4] = system: cocklebur (Xanthium pensylvanicum); assay: Postemergence herbicidal activity, cocklebur; settings: Xanthium strumarium, post-emergence, 336 h, 2 lb/A
Method: as §1
as §2, with “tables. About two weeks after the application of the test compound, the state of growth of the plants is observed and the phytotoxic effect of the compound is evaluated. Tables III and IV give the average percent control achieved by test compounds in terms of the percent of the plants which are killed by the compounds.” for “tables.”

[5] = system: barnyardgrass (Echinochloa crusgalli); assay: Preemergence herbicidal activity, barnyardgrass; settings: Echinochloa crus-galli, pre-emergence, 336 h; Pre, 2 lb/A
Method: as §1, §2

[6] = system: downybrome (Bromus tectorum); assay: Preemergence herbicidal activity, downybrome; settings: Bromus tectorum, pre-emergence, 336 h, Pre, 2 lb/A
Method: as §1
as §2, with “tables. About two weeks after the application of the test compound, the state of growth of the plants is observed and the phytotoxic effect of the compound is evaluated. Tables III and IV give the average percent control achieved by test compounds in terms of the percent of the plants which are killed by the compounds.” for “tables.”

marigold (Tagetes spp.) [7] = assay: Postemergence herbicidal activity, marigold; settings: post-emergence, 336 h, 2 lb/A
Method: as §1
as §2, with “tables. About two weeks after the application of the test compound, the state of growth of the plants is observed and the phytotoxic effect of the compound is evaluated. Tables III and IV give the average percent control achieved by test compounds in terms of the percent of the plants which are killed by the compounds.” for “tables.”

[8] = system: morningglory (Ipomoca spp.); assay: Postemergence herbicidal activity, morningglory; settings: Ipomoea, post-emergence, 336 h, 2 lb/A
Method: as §1
as §2, with “tables. About two weeks after the application of the test compound, the state of growth of the plants is observed and the phytotoxic effect of the compound is evaluated. Tables III and IV give the average percent control achieved by test compounds in terms of the percent of the plants which are killed by the compounds.” for “tables.”

[9] = system: downybrome (Bromus tectorum); assay: Postemergence herbicidal activity, downybrome; settings: Bromus tectorum, post-emergence, 336 h, Post, 2 lb/A
Method: as §1
as §2, with “tables. About two weeks after the application of the test compound, the state of growth of the plants is observed and the phytotoxic effect of the compound is evaluated. Tables III and IV give the average percent control achieved by test compounds in terms of the percent of the plants which are killed by the compounds.” for “tables.”

[10] = system: tomato (Lycopersicon esculentum); assay: Postemergence herbicidal activity, tomato; settings: Solanum lycopersicum, post-emergence, 336 h, Post, 2 lb/A
Method: as §1
as §2, with “tables. About two weeks after the application of the test compound, the state of growth of the plants is observed and the phytotoxic effect of the compound is evaluated. Tables III and IV give the average percent control achieved by test compounds in terms of the percent of the plants which are killed by the compounds.” for “tables.”

[11] = system: tomato (Lycopersicon esculentum); assay: Preemergence herbicidal activity, tomato; settings: Solanum lycopersicum, pre-emergence, 336 h; Pre, 2 lb/A
Method: as §1
as §2, with “tables. About two weeks after the application of the test compound, the state of growth of the plants is observed and the phytotoxic effect of the compound is evaluated. Tables III and IV give the average percent control achieved by test compounds in terms of the percent of the plants which are killed by the compounds.” for “tables.”

[12] = system: velvetleaf (Abutilon theophrasti); assay: Preemergence herbicidal activity, velvetleaf; settings: Abutilon theophrasti, pre-emergence, 336 h; Pre, 2 lb/A
Method: as §1
as §2, with “tables. About two weeks after the application of the test compound, the state of growth of the plants is observed and the phytotoxic effect of the compound is evaluated. Tables III and IV give the average percent control achieved by test compounds in terms of the percent of the plants which are killed by the compounds.” for “tables.”

[13] = system: cocklebur (Xanthium pensylvanicum); assay: Preemergence herbicidal activity, cocklebur; settings: Xanthium strumarium, pre-emergence, 336 h, 2 lb/A
Method: as §1
as §2, with “tables. About two weeks after the application of the test compound, the state of growth of the plants is observed and the phytotoxic effect of the compound is evaluated. Tables III and IV give the average percent control achieved by test compounds in terms of the percent of the plants which are killed by the compounds.” for “tables.”

wild oats (Avena fatua) [14] = assay: Preemergence herbicidal activity, wild oats; settings: Avena fatua, pre-emergence, 336 h, Pre, 2 lb/A; read-out: % control, Wild oat
Method: as §1
as §2, with “tables. About two weeks after the application of the test compound, the state of growth of the plants is observed and the phytotoxic effect of the compound is evaluated. Tables III and IV give the average percent control achieved by test compounds in terms of the percent of the plants which are killed by the compounds.” for “tables.”

marigold (Tagetes spp.) [15] = assay: Preemergence herbicidal activity, marigold; settings: pre-emergence, 336 h, 2 lb/A
Method: as §1
as §2, with “tables. About two weeks after the application of the test compound, the state of growth of the plants is observed and the phytotoxic effect of the compound is evaluated. Tables III and IV give the average percent control achieved by test compounds in terms of the percent of the plants which are killed by the compounds.” for “tables.”

wild oats (Avena fatua) [16] = assay: Postemergence herbicidal activity, wild oats; settings: Avena fatua, post-emergence, 336 h, Post, 2 lb/A; read-out: % control, Wild oat
Method: as §1
as §2, with “tables. About two weeks after the application of the test compound, the state of growth of the plants is observed and the phytotoxic effect of the compound is evaluated. Tables III and IV give the average percent control achieved by test compounds in terms of the percent of the plants which are killed by the compounds.” for “tables.”

[17] = system: yellow nutsedge (Cyperus esculentus); assay: Postemergence herbicidal activity, yellow nutsedge; settings: Cyperus, post-emergence, 336 h, 2 lb/A
Method: as §1
as §2, with “tables. About two weeks after the application of the test compound, the state of growth of the plants is observed and the phytotoxic effect of the compound is evaluated. Tables III and IV give the average percent control achieved by test compounds in terms of the percent of the plants which are killed by the compounds.” for “tables.”

[18] = system: yellow nutsedge (Cyperus esculentus); assay: Preemergence herbicidal activity, yellow nutsedge; settings: Cyperus, pre-emergence, 336 h, 2 lb/A
Method: as §1
as §2, with “tables. About two weeks after the application of the test compound, the state of growth of the plants is observed and the phytotoxic effect of the compound is evaluated. Tables III and IV give the average percent control achieved by test compounds in terms of the percent of the plants which are killed by the compounds.” for “tables.”

foxtail (Setaria spp.) [19] = assay: Preemergence herbicidal activity, foxtail; settings: Setaria, pre-emergence, 336 h; Pre, 2 lb/A
Method: as §1
as §2, with “tables. About two weeks after the application of the test compound, the state of growth of the plants is observed and the phytotoxic effect of the compound is evaluated. Tables III and IV give the average percent control achieved by test compounds in terms of the percent of the plants which are killed by the compounds.” for “tables.”

[20] = system: velvetleaf (Abutilon theophrasti); assay: Postemergence herbicidal activity, velvetleaf; settings: Abutilon theophrasti, post-emergence, 336 h, 2 lb/A
Method: as §1, §2

Row | SMILES | pest or weed control at 2241.7 g/ha [1] [%] | pest or weed control at 2241.7 g/ha [2] [%] | pest or weed control at 2241.7 g/ha (foxtail (Setaria spp.) [3]) [%] | pest or weed control at 2241.7 g/ha [4] [%] | pest or weed control at 2241.7 g/ha [5] [%] | pest or weed control at 2241.7 g/ha [6] [%] | pest or weed control at 2241.7 g/ha (marigold (Tagetes spp.) [7]) [%] | pest or weed control at 2241.7 g/ha [8] [%] | pest or weed control at 2241.7 g/ha [9] [%] | pest or weed control at 2241.7 g/ha [10] [%] | pest or weed control at 2241.7 g/ha [11] [%] | pest or weed control at 2241.7 g/ha [12] [%] | pest or weed control at 2241.7 g/ha [13] [%] | pest or weed control at 2241.7 g/ha (wild oats (Avena fatua) [14]) [%] | pest or weed control at 2241.7 g/ha (marigold (Tagetes spp.) [15]) [%] | pest or weed control at 2241.7 g/ha (wild oats (Avena fatua) [16]) [%] | pest or weed control at 2241.7 g/ha [17] [%] | pest or weed control at 2241.7 g/ha [18] [%] | pest or weed control at 2241.7 g/ha (foxtail (Setaria spp.) [19]) [%] | pest or weed control at 2241.7 g/ha [20] [%]
1 | CC(Oc1ccc(Oc2ccc(C(F)(F)F)cc2)cc1)C(N)=O (stereo not shown) [Example 40, 2-[4-(4-trifluoromethylphenoxy)phenoxy] propanamide] | 99 | 0 | 95 | 20 | 99 | 80 | 0 | 0 | 40 | 0 | 0 | 0 | 0 | 60 | 0 | 95 | 0 | 0 | 100 | 0
2 | CCCCCCCCOC(=O)C(C)Oc1ccc(Oc2ccc(C(F)(F)F)cc2Cl)cc1 (stereo not shown) [Example 26] | 100 | 0 | 100 | 60 | 50 | 0 | 70 | 70 | 50 | 30 | 0 | 0 | 0 | 50 | 0 | 20 | 20 | 0 | 0 | 50

From patent US4335249A, “Herbicidal diphenyl ethers, sulfides, sulfoxides and sulfones” (Rohm and Haas Company, priority 1976, dated 1982)
